For `CCCCCCOc1ccc(-n2c(-c3ccc(Br)cc3)ccc2-c2ccc(Br)cc2)cc1`, the melting point was in the range of 201 to 202 °C.

As for `Cc1cccc(C(=O)NC(Nc2c(Nc3cccnc3)c(=O)c2=O)C(C)(C)Cc2ccncc2)c1` (configuration not stated), the melting point fell in the range of 219 to 221 °C.

Regarding `N[C@@]1(C(=O)O)C[C@H](NC(=O)Nc2cccc(Cl)c2)[C@H]2[C@H](C(=O)O)[C@H]21` (relative stereo), the melting point was > 250 °C.

`CC1(C)[C@H]2CC[C@@H](CC(=O)O)[C@@H]1C2`: the melting point is 50 to 53 °C.

Compound `COc1ccc(-c2cc(C(=O)O)c(=O)n(Cc3ccc(F)cc3)n2)cc1F` had a melting point of 222 to 224 °C.

In turn, `CCNC(=O)Nc1nc2cc(-c3cncnc3)cc(C(=O)NCC)n2n1` had a melting point of 317 to 321 °C.

Compound `CC(=O)OC1CCC2(C)C(=CCC3C2CCC2(C)C(n4cnc5ccccc54)=CCC32)C1` (configuration not stated) came in with a melting point of 159 to 160 °C.

Compound `COC(=O)NC(=O)NS(=O)(=O)c1ccc(Cl)cc1` gave a melting point of 174 to 175 °C.

The compound `Cc1c(C(F)(F)F)cnn(-c2cc(OCCC3OCCCO3)c(Cl)cc2F)c1=O` registered a melting point of 112 °C.

On to `Cc1cc(NC(=O)CC(C)(C)C)c(C)c2c1OCC2c1ccc(C(C)C)cc1` (configuration not stated), for which the melting point lay in the range of 135 to 136 °C.

On to `O=C(Oc1ccccc1)N1C(C2=COc3ccccc3O2)=COc2cccnc21`, for which the melting point amounted to 142 °C.

The compound `O=C(Cc1c(-c2ccccc2)c2cc(CN3CCOCC3)c(Cl)cc2oc1=O)Nc1ccc(Cl)cc1C(F)(F)F` showed a melting point of 205 to 207 °C.

Consider `O=C1CCCC2=C1C(c1cccc(C(F)(F)F)c1)C1=C(CCCC1)N2` (configuration not stated), for which the melting point was in the range of 250 to 251 °C.

For the compound `COc1ccc(C(NCC(=O)Nc2c(C(C)C)cccc2C(C)C)c2ccccc2)cc1` (configuration not stated), the melting point fell in the range of 117 to 118 °C.

In turn, `O=C(c1ccccc1)c1[nH]c2cc(Cl)ccc2c1NC(=O)C(F)(F)F` had a melting point of 165 to 168 °C.

`Cc1ccc(NC(=O)c2snnc2C2CC2)cc1Cl` yielded a melting point of 150 to 153 °C.

`O=C(O)c1cn(-c2nnc(C(F)(F)F)s2)c2nc(Cl)c(F)cc2c1=O` gave a melting point of 232 to 237 °C.

Compound `COc1ccc2c(c1)CC(NNc1ncnc3c1ncn3C1OC(CO)C(O)C1O)CO2` (configuration not stated) registered a melting point of 90 to 95 °C.

The compound `CCOC(=O)c1cn(-c2cc(N)c(F)c(F)c2F)c2cc(F)c(F)cc2c1=O` had a melting point of 116 to 124 °C.

Regarding `CC(=O)OCCOc1ccc(OCCOC(C)=O)c(N)c1`, the melting point lay in the range of 67.5 to 69.5 °C.

The compound `CN(Cc1cccc2c1CN(C1CCC(=O)NC1=O)C2=O)C(=O)CCNC(=O)OC(C)(C)C` (configuration not stated) yielded a melting point of 222 to 224 °C.

`C[Si](C)(C)c1cccc2cc(C(=O)Nc3ccc(N4CCC4)nc3)n(Cc3cccc(F)c3)c12` had a melting point of 160 to 162 °C.

As to `CCCCCCOc1ccc(-c2ncc(-c3ccc(O)c(F)c3F)cn2)cn1`, the melting point was in the range of 150 to 155 °C.

As to `CS(=O)(=O)OCCOc1ccccc1OCC1CC1`, the melting point fell in the range of 90 to 91 °C.

`COC(=O)N1C2CC3CC(C2)CC1C3` registered a melting point of 88 °C.

As for `Cc1c(C(F)(F)F)ncn(-c2c(Cl)cc(C(F)(F)F)cc2C#N)c1=O`, the melting point lay within 154 to 155 °C.

Compound `Clc1ccc(OCC2COC(CBr)(c3ccc(Cl)cc3)O2)cc1` (configuration not stated) gave a melting point of 165 °C.

The compound `CC1(C)C(=O)N(CCN2CCc3c([nH]c4ccccc34)C2)c2ccccc21` showed a melting point of 156 to 158 °C.

`CCN(CC)CCOc1ccc(C#Cc2ccc(OC)cc2)cc1` yielded a melting point of 59 to 60 °C.

In turn, `NC(=O)N(O)CCNC(=O)c1cccc(Oc2ccc(Cl)cc2)c1` had a melting point of 146 to 147 °C.

`CCC(C(=O)Nc1c(C)cccc1C)N(C)C` (configuration not stated) came in with a melting point of 155 to 157 °C.

Regarding `Cc1c(/C=C/C(=O)c2c[nH]c3ccccc23)ncn1C(c1ccccc1)(c1ccccc1)c1ccccc1`, the melting point lay within 240 to 242 °C.

Compound `Cc1c(Br)c(C)c2c(C)coc2c1Cc1ccc(C(C)C)cc1` had a melting point of 76 to 77 °C.

In the case of `CN1CCc2cc(-c3ccc4c(c3)CCN(CCN3CCCC3)C4=O)ccc2C1=O`, the melting point was 225 to 226 °C.

Take `CCC(=O)N(C)c1c(C(=O)c2cccc(Cl)c2)[nH]c2cc(Cl)ccc12`: the melting point lay in the range of 194 to 195 °C.

Turning to `COCc1nc(N)nc(SC)n1`, the melting point was 134 to 136 °C.

As to `Cn1c(=O)ccc2cnc(NCCc3ccccn3)nc21`, the melting point fell in the range of 155 to 156 °C.

For the compound `Nc1ccc(Oc2ccc(C(c3ccc(Oc4ccc(N)c(O)c4)cc3)(C(F)(F)F)C(F)(F)F)cc2)cc1O`, the melting point is 178 to 181 °C.

In the case of `CC(c1ccccc1N1CCCC1)C(C(N)=O)c1ccc(C(=O)O)cc1` (configuration not stated), the melting point was 155 to 157 °C.

Consider `COc1ccc(NC(=O)c2coc3c2C(=O)CCCC3)c(F)c1`, for which the melting point was 168 to 172 °C.

`CC(C)(CN)c1ccc2nc(-c3ccc(O)cc3)[nH]c2c1` displayed a melting point of 178 to 182 °C.

`CC(=O)N1N=C(c2ccc([N+](=O)[O-])cc2)c2ccc(Cl)cc2CC1C` (configuration not stated) returned a melting point of 174 to 175 °C.

`CCOC(=O)Cc1ccccc1Oc1ccc(C)cc1`: the melting point is 75 °C.

`CSc1cc2cnc(-c3ccccc3)n2c(SC)n1` had a melting point of 117 to 118 °C.

`COc1ccc2c(O)cc(=O)oc2c1C` showed a melting point of 195 to 197 °C.

For the compound `O=C(O)c1cn(C(c2ccccc2)(c2ccccc2)c2ccccc2)c(I)n1`, the melting point is 203 to 205 °C.

As to `OC(C=C(Cl)Cl)(Cn1cncn1)c1ccc(Cl)cc1` (configuration not stated), the melting point was 95 to 99 °C.

`CCOC(=O)CCCCc1ccc(OCc2nc(-c3ccccc3)oc2C)cc1` had a melting point of 57 to 58 °C.

For `ON=C1CN2[C@H]3CC[C@@H]2[C@@H]1[C@@H](c1ccc(Cl)c(Cl)c1)C3`, the melting point lay in the range of 45 to 52 °C.

In the case of `O=C1C=CC(=C(c2ccc3ccccc3c2)c2ccc3ccccc3c2)O1`, the melting point fell in the range of 138 to 140 °C.

`CC(=O)OCc1ccc(-c2ccccc2)cn1`: the melting point was in the range of 71 to 72 °C.

Compound `CC(C)CNCc1cc2cc(NC(=O)c3ccc(C#CC4(O)CCC4)cc3)ccc2n1C` came in with a melting point of 168 to 169 °C.

Consider `CC(C)Cn1c(CO)c(-c2cccc(F)c2)c2cc(OCc3ccccc3)ccc2c1=O`, for which the melting point was found to be 146 °C.

`C#Cc1ncn2c1[C@@H]1CCCN1C(=O)c1c(Cl)cccc1-2` gave a melting point of 324 to 325 °C.

Turning to `COc1c(Cl)ccc(-c2cc(N)c(Cl)c(C(=O)OCc3ccccc3)n2)c1Cl`, the melting point was in the range of 107 to 108 °C.

Turning to `O=C1NCCc2ccc(OCCCCN3CCC(c4cccc(Cl)c4Cl)CC3)cc21`, the melting point is 113 to 114 °C.

With `CCCc1c(OCCCC#CC(=O)NCCCCc2cccnc2)ccc(C(C)=O)c1O`, the melting point lay within 84 to 86 °C.

The compound `COc1ccc(C2(C#Cc3cccc(-c4nc(C)no4)c3)CCC(=O)CC2)cc1OC1CCCC1` gave a melting point of 88 to 91 °C.

On to `O=C(Nc1ccc(Sc2c(O)c3c(Cl)cc(Cl)cc3[nH]c2=O)cc1)c1cccnc1`, for which the melting point is > 300 °C.

Compound `COc1ccc(C(=NOCC(=O)O)c2ccc(OC)cc2)cc1` returned a melting point of 105 to 107 °C.

For `CCCC(=O)c1c[nH]c2ccsc2c1=O`, the melting point was in the range of 244 to 247 °C.

Compound `CCCCCc1cc2c(nc(O)n2[C@@H](C)c2ccccc2)c(N)n1` displayed a melting point of 147 to 148 °C.

`O=C(Nc1ccc(OC(F)(F)F)cc1)NC1CCN(C(=O)CN2CCNCC2)CC1` came in with a melting point of 111 to 122 °C.

For `CCOC(=O)CN(CP(=S)(Oc1ccccc1)Oc1ccccc1)C(=O)C(F)(F)F`, the melting point was in the range of 50 to 52 °C.

As to `CCn1ncc2c3c4c(nc21)CCc1ccccc1-c4nn3C`, the melting point lay in the range of 140 to 141 °C.

As for `FC(F)(F)c1ccccc1CC[C@H]1CNCCN1`, the melting point was 43 to 47 °C.

The compound `COc1ccc(F)c(F)c1C(=O)c1cnc(NC2CCN(S(N)(=O)=O)CC2)nc1N` had a melting point of 217 to 218 °C.

In turn, `O=C(O)CCCn1sc2ccc([N+](=O)[O-])cc2c1=O` came in with a melting point of 183 to 186 °C.

As for `CC1COCc2nc3c(N)nc4ccc(OCC(=O)N5CCOCC5)cc4c3n21` (configuration not stated), the melting point fell in the range of 226 to 228 °C.

Take `C#Cc1ccc(Cn2cc(-c3ccc(OC)cc3)ccc2=O)cn1`: the melting point was 273 °C.

As for `Cc1cc2c(NCc3ccc4c(c3)OCO4)nc(Cl)nc2s1`, the melting point came to 162 °C.

In the case of `COC(=O)CN(C1(C(=O)C2CCCCC2)C=C(Cl)C=CC1)S(=O)(=O)c1ccc(OC)cc1` (configuration not stated), the melting point was 115 to 116 °C.

In the case of `Cc1c(N2CC3(CC3)[C@](C)(N)C2)ccc2c(=O)c(C(=O)O)cn(C3CC3)c12`, the melting point lay in the range of 227 to 230 °C.

Regarding `N=C(NO)c1ccc2[nH]cc(CCN3C(=O)c4ccccc4C3=O)c2c1`, the melting point lay within 168 to 170 °C.

Compound `NCC1COc2cc(Cl)cc(-c3ccc(C(F)(F)F)cc3C(F)(F)F)c2N1` (configuration not stated) registered a melting point of 98 °C.

Regarding `COc1cc2c(cc1C(F)(F)F)N(C(=O)Nc1csc(-c3cccnc3)n1)CC2`, the melting point is > 200 °C.

With `COC(=O)c1ccc(Br)cc1Cl`, the melting point was 28 to 30 °C.

As for `NCc1ccc(N2CCN(c3ccc(CCC(=O)O)cc3)C2=O)cc1`, the melting point was > 260 °C.

The compound `Cc1cn(-c2cc(Br)c3c(c2)CCC(=O)N3)c(C)n1` registered a melting point of 242 °C.

The compound `CC1C(=O)NC2=Nc3ccc(OCCCCC(=O)N(CCO)C4CCCCC4)c(Cl)c3CN21` (configuration not stated) returned a melting point of 206 to 208 °C.

Turning to `Cc1c(NC(=O)CC(C)(C)C)c(C)c2c(c1-c1cccc(F)c1)OCC2c1ccc(C(C)C)cc1` (configuration not stated), the melting point lay in the range of 182 to 183 °C.

As to `CCn1c(=O)c2c(O)cc(=O)oc2c2ccc(Cl)cc21`, the melting point was 276 to 278 °C.

The compound `c1ccc(C2=NOC3(CCNCC3)C2)cc1` gave a melting point of 115 °C.

`CC(C)CCC(=O)N[C@@H]1N=C(c2ccccc2)c2ccccc2N(C)C1=O`: the melting point fell in the range of 123 to 125 °C.

In turn, `Nc1c2c(nc3cccc(F)c13)CCCC2` yielded a melting point of 175 °C.

Take `CC(C)(C)OC(=O)N[C@H]1CC[C@H](CC=O)CC1`: the melting point was 61 to 63 °C.

With `COc1ccccc1C(=O)Nc1ccc(N2CCOCC2)cc1C(C)=O`, the melting point lay within 158 to 160 °C.

For the origin of these results see a melting point compilation (Tetko et al.; mined from patent text by program, amines drawn as free bases though some values may be those of a salt).
